Assay [1] has as its target T1, Acetylcholinesterase (Rattus norvegicus, UniProt P37136).
T1 sequence (P37136 whole entry): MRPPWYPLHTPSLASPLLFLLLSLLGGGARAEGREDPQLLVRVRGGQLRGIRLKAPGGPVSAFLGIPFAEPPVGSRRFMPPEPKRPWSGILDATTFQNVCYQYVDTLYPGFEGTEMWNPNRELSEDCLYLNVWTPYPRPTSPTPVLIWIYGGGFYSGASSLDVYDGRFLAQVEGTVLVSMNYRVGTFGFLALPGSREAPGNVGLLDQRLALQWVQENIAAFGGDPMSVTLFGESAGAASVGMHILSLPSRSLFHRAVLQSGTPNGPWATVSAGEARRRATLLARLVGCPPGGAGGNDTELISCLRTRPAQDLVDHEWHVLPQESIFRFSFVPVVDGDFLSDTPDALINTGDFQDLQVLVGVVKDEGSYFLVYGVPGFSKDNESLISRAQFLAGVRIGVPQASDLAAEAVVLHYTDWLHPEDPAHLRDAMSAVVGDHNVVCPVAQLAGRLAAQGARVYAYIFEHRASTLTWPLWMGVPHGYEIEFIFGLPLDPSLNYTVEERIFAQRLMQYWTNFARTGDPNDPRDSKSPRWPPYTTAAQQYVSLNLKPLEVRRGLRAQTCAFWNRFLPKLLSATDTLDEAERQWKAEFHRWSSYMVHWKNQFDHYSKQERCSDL
Description: Inhibition of Acetylcholinesterase in rat red blood cell

In assay [2] the target is T2, Acetylcholinesterase (Mus musculus, UniProt P21836).
T2 sequence (P21836 whole entry): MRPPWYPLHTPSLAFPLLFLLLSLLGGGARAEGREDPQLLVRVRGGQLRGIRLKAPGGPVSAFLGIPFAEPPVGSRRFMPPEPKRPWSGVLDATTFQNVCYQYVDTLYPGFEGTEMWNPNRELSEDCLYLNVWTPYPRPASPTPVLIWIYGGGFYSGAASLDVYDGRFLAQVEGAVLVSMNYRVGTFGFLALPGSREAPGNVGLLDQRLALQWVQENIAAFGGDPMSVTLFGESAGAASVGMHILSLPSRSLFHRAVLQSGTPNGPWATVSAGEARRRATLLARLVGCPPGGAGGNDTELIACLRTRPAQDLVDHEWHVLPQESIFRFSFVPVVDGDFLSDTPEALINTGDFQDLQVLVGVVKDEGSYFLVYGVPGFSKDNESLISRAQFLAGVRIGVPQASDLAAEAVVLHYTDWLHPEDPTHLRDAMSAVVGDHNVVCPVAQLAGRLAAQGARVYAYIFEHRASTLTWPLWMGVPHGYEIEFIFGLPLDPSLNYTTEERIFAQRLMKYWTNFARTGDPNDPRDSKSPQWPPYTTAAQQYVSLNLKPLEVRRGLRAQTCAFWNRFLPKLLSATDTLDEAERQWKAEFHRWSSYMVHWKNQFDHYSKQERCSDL
Description: Inhibition of Acetylcholinesterase in mouse red blood cell

In assay [3] the target is Acetylcholinesterase (Homo sapiens, UniProt P22303).
Chain of Acetylcholinesterase (Homo sapiens, UniProt P22303) (P22303 whole entry): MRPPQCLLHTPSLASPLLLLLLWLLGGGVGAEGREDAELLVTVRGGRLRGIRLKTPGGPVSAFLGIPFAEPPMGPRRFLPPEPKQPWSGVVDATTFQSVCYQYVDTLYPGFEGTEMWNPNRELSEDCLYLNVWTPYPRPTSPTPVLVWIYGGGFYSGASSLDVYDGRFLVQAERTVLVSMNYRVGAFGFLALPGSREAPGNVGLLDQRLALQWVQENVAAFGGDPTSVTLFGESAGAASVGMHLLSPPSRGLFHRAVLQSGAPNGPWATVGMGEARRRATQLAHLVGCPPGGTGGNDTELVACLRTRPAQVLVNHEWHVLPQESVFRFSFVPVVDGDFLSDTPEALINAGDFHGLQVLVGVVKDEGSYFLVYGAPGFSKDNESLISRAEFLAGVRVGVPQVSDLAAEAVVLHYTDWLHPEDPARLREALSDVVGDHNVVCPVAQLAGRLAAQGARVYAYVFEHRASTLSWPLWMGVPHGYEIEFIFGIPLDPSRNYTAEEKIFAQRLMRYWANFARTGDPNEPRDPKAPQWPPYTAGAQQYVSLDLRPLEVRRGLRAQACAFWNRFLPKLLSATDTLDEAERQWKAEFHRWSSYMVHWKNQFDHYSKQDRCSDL
Description: Inhibition of Acetylcholinesterase in human red blood cell

The results in this text go back to ChEMBL document CHEMBL1129252, “Identification of a 3-hydroxylated tacrine metabolite in rat and man: metabolic profiling implications and pharmacology” (J Med Chem, 1996).

At Acetylcholinesterase [1], `Nc1c2c(nc3ccccc13)CCCC2O` (stereo not given) [VELNACRINE] displayed an IC50 of 361 nM.

Regarding `Nc1c2c(nc3ccccc13)CC(O)CC2` (stereo not given) [7-HYDROXYTACRINE], the results for the IC50 against Acetylcholinesterase [2], at Acetylcholinesterase [3] and against Acetylcholinesterase [1] were 1210 nM, 623 nM and 483 nM, respectively.

Turning to `Nc1c2c(nc3ccccc13)C(O)CCC2` (stereo not given), the IC50 was determined as 1430 nM at Acetylcholinesterase [2], 521 nM against Acetylcholinesterase [3] and 411 nM against Acetylcholinesterase [1].

As to `Nc1c2c(nc3ccccc13)CCC(O)C2` (stereo not given), the IC50 on Acetylcholinesterase [2] worked out at 4820 nM; on Acetylcholinesterase [3] it was 1610 nM; against Acetylcholinesterase [1], 1770 nM.

Usually IC50 stands for the concentration needed to halve the response being measured. A lower IC50 goes with inhibition by little substance.
